Assay results published in the NIST ThermoML archive (doi:10.1021/je900520a).
± gives the expanded uncertainty stated by the source.

Settings: Crystal; visual observation

Row | SMILES | Normal melting temperature [°C]
1 | C[C@]12C=CC(=O)N[C@@H]1CC[C@@H]1[C@@H]2CC[C@]2(C)[C@@H](C(=O)Nc3cc(C(F)(F)F)ccc3C(F)(F)F)CC[C@@H]12 [dutasteride] | 242 ± 1
2 | CC(C)(C)NC(=O)[C@H]1CC[C@H]2[C@@H]3CC[C@H]4NC(=O)C=C[C@]4(C)[C@H]3CC[C@]12C [finasteride] | 252 ± 1
3 | CC(C)C(=O)Nc1ccc([N+](=O)[O-])c(C(F)(F)F)c1 [flutamide] | 111 ± 1
